Assay results: article PMC3460867, “MmPPOX Inhibits Mycobacterium tuberculosis Lipolytic Enzymes Belonging to the Hormone-Sensitive Lipase Family and Alters Mycobacterial Growth” (PLoS ONE, 2012)
Values after ≈ are worked out from the molar mass of the structure shown. Like-named read-outs stand apart in the source and are kept apart here.

Legend:
LipY = target: T1, LipY (Mycobacterium tuberculosis, UniProt I6Y2J4); experiment: biochemical; type: biochemical, M. tuberculosis; settings: for Ki: Apparent K i
T1 sequence (I6Y2J4 1-437): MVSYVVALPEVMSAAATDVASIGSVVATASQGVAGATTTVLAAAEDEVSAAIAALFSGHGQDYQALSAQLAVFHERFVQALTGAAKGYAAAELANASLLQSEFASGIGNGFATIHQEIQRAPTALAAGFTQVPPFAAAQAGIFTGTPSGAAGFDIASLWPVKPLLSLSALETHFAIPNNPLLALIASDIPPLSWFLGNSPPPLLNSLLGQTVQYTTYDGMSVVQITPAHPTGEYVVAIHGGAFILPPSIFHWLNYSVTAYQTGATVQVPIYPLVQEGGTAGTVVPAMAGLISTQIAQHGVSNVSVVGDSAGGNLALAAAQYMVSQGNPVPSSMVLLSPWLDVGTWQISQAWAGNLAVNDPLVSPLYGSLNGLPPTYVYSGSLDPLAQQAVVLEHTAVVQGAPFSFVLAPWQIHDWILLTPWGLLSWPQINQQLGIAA

[1] = test system: M. bovis BCG strain Pasteur 1173P2; experiment: microbe, parasite or virus in culture; type: cell-based; settings: Mycobacterium tuberculosis variant bovis BCG
LipC = LipC (Mycobacterium tuberculosis, UniProt P96402); experiment: biochemical; type: biochemical; settings: for x I50: inhibitor molar excess leading to 50% residual activity after 10 min incubation; for Residual activity (%) 10 min: 10 min incubation; for Residual activity (%) 30 min: 30 min incubation
LipC, sequence (P96402 whole entry): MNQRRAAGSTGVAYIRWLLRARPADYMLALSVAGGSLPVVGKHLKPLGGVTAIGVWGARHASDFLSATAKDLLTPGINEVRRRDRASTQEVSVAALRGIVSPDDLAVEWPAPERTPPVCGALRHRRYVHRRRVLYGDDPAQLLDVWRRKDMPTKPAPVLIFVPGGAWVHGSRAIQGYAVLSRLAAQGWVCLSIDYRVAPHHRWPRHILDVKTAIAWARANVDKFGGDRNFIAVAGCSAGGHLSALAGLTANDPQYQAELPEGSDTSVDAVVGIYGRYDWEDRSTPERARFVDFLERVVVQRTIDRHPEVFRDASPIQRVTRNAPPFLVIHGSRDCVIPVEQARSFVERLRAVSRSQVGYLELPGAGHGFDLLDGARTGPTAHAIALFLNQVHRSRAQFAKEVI

LipI = LipI (Mycobacterium tuberculosis, UniProt P71668); experiment: biochemical; type: biochemical; settings: for x I50: inhibitor molar excess leading to 50% residual activity after 10 min incubation; for Residual activity (%) 10 min: 10 min incubation; for Residual activity (%) 30 min: 30 min incubation
LipI, sequence (P71668 whole entry): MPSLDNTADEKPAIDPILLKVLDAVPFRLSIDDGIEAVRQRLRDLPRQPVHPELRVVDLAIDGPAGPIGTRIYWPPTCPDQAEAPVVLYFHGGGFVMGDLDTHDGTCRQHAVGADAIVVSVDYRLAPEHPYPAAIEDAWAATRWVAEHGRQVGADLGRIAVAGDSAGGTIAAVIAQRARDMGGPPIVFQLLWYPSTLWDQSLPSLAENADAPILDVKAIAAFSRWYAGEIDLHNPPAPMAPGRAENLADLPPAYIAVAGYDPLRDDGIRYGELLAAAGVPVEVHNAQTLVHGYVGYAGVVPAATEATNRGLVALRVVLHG

[2] = test system: M. tuberculosis strain mc^27000; experiment: microbe, parasite or virus in culture; type: cell-based; settings: Mycobacterium tuberculosis
Cut6 = Cut6 (Mycobacterium tuberculosis, UniProt O53581); experiment: biochemical; type: biochemical; settings: for x I50: inhibitor molar excess leading to 50% residual activity after 10 min incubation
Cut6, sequence (O53581 44-336): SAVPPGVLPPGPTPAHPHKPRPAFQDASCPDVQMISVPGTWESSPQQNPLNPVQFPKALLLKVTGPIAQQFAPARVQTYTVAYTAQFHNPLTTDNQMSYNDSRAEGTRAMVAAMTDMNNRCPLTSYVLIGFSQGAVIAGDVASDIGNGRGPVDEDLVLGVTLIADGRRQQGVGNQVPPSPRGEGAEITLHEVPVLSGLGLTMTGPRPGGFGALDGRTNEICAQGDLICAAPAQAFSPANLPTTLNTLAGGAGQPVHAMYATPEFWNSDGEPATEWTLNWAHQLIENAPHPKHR

LipU = LipU (Mycobacterium tuberculosis, UniProt O53424); experiment: biochemical; type: biochemical; settings: for x I50: inhibitor molar excess leading to 50% residual activity after 10 min incubation
LipU, sequence (O53424 whole entry): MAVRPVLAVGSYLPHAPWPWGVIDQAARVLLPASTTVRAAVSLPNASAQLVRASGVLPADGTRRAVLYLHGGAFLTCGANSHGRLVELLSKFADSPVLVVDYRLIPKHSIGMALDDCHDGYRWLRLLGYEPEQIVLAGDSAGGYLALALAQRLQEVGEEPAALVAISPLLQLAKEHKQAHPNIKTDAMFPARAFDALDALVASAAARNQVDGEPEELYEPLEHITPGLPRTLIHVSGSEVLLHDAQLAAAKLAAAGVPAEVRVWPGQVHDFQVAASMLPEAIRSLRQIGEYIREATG

LipF = type: biochemical; settings: for Residual activity (%) 10 min / Residual activity (%) 30 min: pNPC4
LipW = type: biochemical; settings: pNPC4
LipR = type: biochemical; settings: pNPC4
LipH = type: biochemical; settings: pNPC4
Lip-HSL enzymes = experiment: Inhibition of all Lip-HSL enzymes tested, pre-incubation method, residual activity on pNPC4 (statements for the family); type: biochemical
LipN = experiment: Inhibition of recombinant LipN, pre-incubation method, residual activity on pNPC4; type: biochemical, M. tuberculosis; settings: for Residual activity (%) 10 min / Residual activity (%) 30 min: pNPC4
[3] = near stoichiometric proportions of inhibitor (x I<2)
[4] = LipC, near stoichiometric proportions of inhibitor (x I<2)
[5] = LipI, near stoichiometric proportions of inhibitor (x I<2)

## CCCCCCCCCCC[C@@H](C[C@@H]1OC(=O)[C@H]1CCCCCC)OC(=O)[C@H](CC(C)C)NC=O [THL, Tetrahydrolipstatin]
LipY
  Ki: 3.2 µM
[1]
  MIC: 7.5 mg/L (≈ 15.1 µM)
LipC; LipC, pNPC4
  x I50: >500
LipC; LipC, pNPC4, read-out: Apparent K i
  Ki: > 1000 µM
LipI; LipI, pNPC4
  x I50: 65.9
LipI; LipI, pNPC4, read-out: Apparent K i
  Ki: 13.1 µM
[2]
  MIC: 20 mg/L (≈ 40.3 µM)
Cut6; Cut6, pNPC4
  x I50: 9.7
Cut6; Cut6, pNPC4, read-out: Apparent K i
  Ki: 142 µM
LipU; pNPC4
  x I50: >500
LipU; pNPC4, read-out: Apparent K i
  Ki: > 1000 µM

## COc1nn(-c2cccc(Oc3ccccc3)c2)c(=O)o1 [MmPPOX, 5-methoxy-N-3-(meta-phenoxyphenyl)-1,3,4-oxadiazol-2(3H)-one]
LipF; [3]
  Half inactivation time (t1/2): < 1 min
  Remaining activities: < 10%
LipF; x I = 1, 10 min incubation
  Residual activity (%) 10 min: 7%
LipF; x I = 1, 30 min incubation
  Residual activity (%) 30 min: 11%
LipF; x I = 2, 10 min incubation
  Residual activity (%) 10 min: 0%
LipF; x I = 2, 30 min incubation
  Residual activity (%) 30 min: 0%
LipY
  Residual activity (%) 10 min: 5%
  Residual activity (%) 30 min: 5%
  x I50 ratio: 0.4
  Ki: 7.7 µM
[1]
  MIC: 10 to 20 mg/L (≈ 35.2 to 70.4 µM)
LipC
  Ki: 1 µM
LipC; LipC, calculated as x I50 (THL)/x I50 (MmPPOX)
  x I50 ratio: >10^3
LipC; LipC, pNPC4
  x I50: 0.5
LipC; [4]
  Half inactivation time (t1/2): < 1 min
  Remaining activities: < 10%
LipC; LipC, x I = 2, pNPC4
  Residual activity (%) 10 min: 7%
  Residual activity (%) 30 min: 5%
LipC; LipC, x I = 5, pNPC4
  Residual activity (%) 10 min: 0%
  Residual activity (%) 30 min: 0%
LipI
  Ki: 0.1 µM
LipI; LipI, calculated as x I50 (THL)/x I50 (MmPPOX)
  x I50 ratio: 131.8
LipI; LipI, pNPC4
  x I50: 0.5
LipI; [5]
  Half inactivation time (t1/2): < 1 min
  Remaining activities: < 10%
LipI; LipI, x I = 1, pNPC4
  Residual activity (%) 10 min: 7%
  Residual activity (%) 30 min: 6%
LipI; LipI, x I = 2, pNPC4
  Residual activity (%) 10 min: 0%
  Residual activity (%) 30 min: 0%
[2]
  MIC: ~25 mg/L (≈ 87.9 µM)
Cut6; Apparent K i, Cut6, pNPC4
  Ki: > 1000 µM
Cut6; Apparent K i, Cut6, pNPC4, value of the text
  Ki: 6400 µM
Cut6; Cut6, calculated as x I50 (THL)/x I50 (MmPPOX)
  x I50 ratio: <0.1
Cut6; Cut6, pNPC4
  x I50: 227.9
Cut6; Cut6, x I = 20
  Activity in the presence of inhibitor: retained full activity
Cut6; Cut6, x I = 20, 10 min incubation, pNPC4
  Residual activity (%) 10 min: 100%
Cut6; Cut6, x I = 20, 30 min incubation, pNPC4
  Residual activity (%) 30 min: 100%
Cut6; Cut6 vs Lip-HSL proteins
  Apparent K i for Cut6 relative to those of Lip-HSL proteins (times higher): about 1000
LipW; x I = 20, 10 min incubation
  Residual activity (%) 10 min: 6%
LipW; x I = 20, 30 min incubation
  Residual activity (%) 30 min: 13%
LipR; x I = 20, 10 min incubation
  Residual activity (%) 10 min: 7%
LipR; x I = 20, 30 min incubation
  Residual activity (%) 30 min: 15%
LipU; Apparent K i, pNPC4
  Ki: 5.1 µM
LipU; calculated as x I50 (THL)/x I50 (MmPPOX)
  x I50 ratio: >333
LipU; pNPC4
  x I50: 1.5
LipU; x I = 20, 10 min incubation, pNPC4
  Residual activity (%) 10 min: 10%
LipU; x I = 20, 30 min incubation, pNPC4
  Residual activity (%) 30 min: 17%
LipH; x I = 5, 10 min incubation
  Residual activity (%) 10 min: 9%
LipH; x I = 5, 30 min incubation
  Residual activity (%) 30 min: 9%
LipH; x I = 10, 10 min incubation
  Residual activity (%) 10 min: 0%
LipH; x I = 10, 30 min incubation
  Residual activity (%) 30 min: 0%
Lip-HSL enzymes; LipF, LipR, LipU and LipW
  Activity restoration: increase of residual activity after 30 min as compared to 10 min: 4–8%
Lip-HSL enzymes; all Lip-HSL enzymes tested, x I = 20
  Half inactivation time (t1/2): < 1 min
Lip-HSL enzymes; all Lip-HSL enzymes tested, x I = 20, 10 min incubation, pNPC4
  Remaining activities: less than 15%
LipN; [3]
  Half inactivation time (t1/2): < 1 min
  Remaining activities: < 10%
LipN; x I = 2, 10 min incubation
  Residual activity (%) 10 min: 6%
LipN; x I = 2, 30 min incubation
  Residual activity (%) 30 min: 6%
LipN; x I = 5, 10 min incubation
  Residual activity (%) 10 min: 0%
LipN; x I = 5, 30 min incubation
  Residual activity (%) 30 min: 0%
